Where two headings read alike, the source gives them in different places.
How the values were obtained:
[1] = tested on: Leishmania tarentolae promastigotes (LtP); assay: Resazurin viability assay in Leishmania tarentolae promastigotes; assay type: cell-based
Method: Leishmania tarentolae promastigotes (LtP) strain P10 from Jena Bioscience (Jena, Germany) were cultivated in brain heart infusion (BHI) medium (37 g/L) that was supplemented with 5 mg/L hemin, 25,000 U/L penicillin and 25 mg/L streptomycin at 26 °C. LtP were always used one day after being passaged, when the cells were in the logarithmic growth phase. The cell count was determined by measuring the optical density (OD) at a wavelength of 600 nm using a U1100 photometer (Hitachi, Tokyo, Japan). The number of the cells was subsequently calculated according to a calibration curve.
(§1) LtP (2 × 10^6 cells/mL) in a mixture of YEM and PBS (1:1, v/v) containing 25,000 U/L penicillin, 25 mg/L streptomycin, and 6 µM hemin (YEM/PBS) were prepared. Aliquots of 200 µL of this suspension were distributed in 96-well plates. Control rows containing YEM/PBS (no activity) and with untreated LtP (100% activity) were also loaded on the plate. To the wells of third rows, compounds (leading to a final vehicle concentration of max. 2% dimethyl sulfoxide (DMSO) in the wells) were added. Subsequently, five 1:5 serial dilution steps were performed. The plates were incubated at 26 °C for 48 h. Following the incubation, 50 µL of a resazurin solution in PBS were added to each well, giving a final concentration of 20 µM. After 4 h of incubation, the fluorescence was measured at 560 nm excitation and 590 nm emission using a plate reader (Perkin Elmer Enspire, Germany). The resazurin assays with J774 cells were performed in analogy to the LtP resazurin assays. Aliquots of a J774 cell suspension in DMEM supplemented with 25,000 U/L penicillin, 25 mg/L streptomycin, and 10% FCS (heat-inactivated), giving a final cell concentration of 10^5 cells/mL, were distributed in the wells of the 96-well microplates. The cells were incubated for 24 h (37 °C, 5% CO2) to allow attachment. Then the medium was discarded and non-adherent cells were removed with 200 µL PBS per well. After the addition of DMEM, the compounds were added, and a serial dilution was performed. Control rows with DMEM (no activity) and with untreated J774 cells (100% activity) were also included. The plates were incubated again for 24 h at 37 °C and 5% CO2. Then the addition of resazurin and the measurement of fluorescence were carried out in analogy to the viability assays performed in LtP.
(§2) Calculations were carried out using Microsoft Excel (Microsoft). The graphs were created using Origin 6.1 (OriginLab Corporation, Northampton, MA, USA). The half maximal inhibitory concentrations (IC50) were determined from non-linear concentration–response curves using a four-parameter logistic model and expressed as the mean ± standard deviation (SD). Statistically significant differences of p <0.05 were identified using Students t-test.

J774 macrophages = assay: Resazurin viability assay in J774 macrophages; assay type: cell-based; conditions: Mus musculus, read-out: IC50 (µM) Mean ± SD J774
Method: The murine macrophage cell line J774A.1 (mouse, ATCC, TIB-67™) was cultivated in Dulbecco’s Modified Eagle Medium (DMEM) (high glucose, 1.5 g/L NaHCO3) supplemented with 25,000 IU/L penicillin, 25 mg/L streptomycin, and 10% FCS (heat-inactivated) in 50 mL TubeSpin bioreactors. The tubes were kept in an incubator at 37 °C and 5% CO2 on a roller culture apparatus (5 rpm). The cells were passaged twice a week, diluting them in a ratio of 1:10. The macrophages were used until passage 30. To determine the cell count, the cell suspension was resuspended and diluted 1:2 with PBS. After fixation of the cells by mixing the cell suspension 1:1 with a formaldehyde solution (2%, v/v), aliquots of the resulting suspension were transferred into a standard Neubauer chamber (VWR, Austria) and counted manually using a light microscope (Motic BA310, Austria) at a magnification of 400×.
as §1, with “The plates were incubated again for 24 h at 37 °C and 5% CO2.” left out
as §2

[2] = Leishmania tarentolae, 48 h, resazurin assay, endpoint at 48 h, 2 × 10^6 LtP/mL, read-out: IC50 (µM) Mean ± SD LtP
[3] = resazurin assay, endpoint at 48 h, 10^5 J774/mL

Compound | IC50 [1, 2] [µM] | IC50 ([1]; Leishmania tarentolae, 48 h, read-out: IC50 (µM) Mean ± SD LtP, resazurin assay, endpoint at 48 h, 2 × 10^6 LtP/mL) [µM] | IC50 ([1]; resazurin assay, endpoint at 48 h, 2 × 10^6 LtP/mL, read-out: IC50 (µM) Mean ± SD LtP) [µM] | IC50 (J774 macrophages; [3]) [µM] | IC50 (J774 macrophages; J774, 48 h) [µM]
CCc1ccc2c(c1)C1OOC2c2ccccc21 (stereo not drawn) [AcEP1130, 2-ethyl-9,10-dihydro-9,10-epidioxidoanthracene] | 0.22 ± 0.09 | – | – | 7.82 ± 0.47 | –
O=C1c2ccccc2C(=O)c2ccccc21 [AQ, anthraquinone, reference compound] | 103 ± 17.8 | – | – | 117 ± 24.3 | –
c1ccc2cc3ccccc3cc2c1 [Ac, anthracene] | – | > 400 | – | – | > 400
N=C(N)c1ccc(OCCCCCOc2ccc(C(=N)N)cc2)cc1 [Pen, pentamidine, reference compound] | < 1 | – | 0.84 ± 0.43 | 14.4 ± 6.48 | –
CC12OOC(c3ccccc31)c1ccccc12 [AcEP1129, 9-methyl-9,10-dihydro-9,10-epidioxidoanthracene] | 0.61 ± 0.21 | – | – | 0.9 ± 0.28 | –

The next lines start with results.

IC50 [1, 2] [µM] | IC50 ([1]; Leishmania tarentolae, 48 h, read-out: IC50 (µM) Mean ± SD LtP, resazurin assay, endpoint at 48 h, 2 × 10^6 LtP/mL) [µM] | IC50 ([1]; resazurin assay, endpoint at 48 h, 2 × 10^6 LtP/mL, read-out: IC50 (µM) Mean ± SD LtP) [µM] | Compound | IC50 (J774 macrophages; [3]) [µM] | IC50 (J774 macrophages; J774, 48 h) [µM]
5.72 ± 1.92 | – | – | c1ccc2c(c1)C1OOC2c2ccccc21 [AcEP1117, 9,10-dihydro-9,10-epidioxidoanthracene] | 43.8 ± 36.1 | –
1 ± 0.73 | – | – | CC12OOC(C)(c3ccccc31)c1ccccc12 [AcEP1118, 9,10-dimethyl-9,10-dihydro-9,10-epidioxidoanthracene] | 4.34 ± 1.91 | –

Reference: paper PMC6100073, “Activation of Anthracene Endoperoxides in Leishmania and Impairment of Mitochondrial Functions” (Molecules : A Journal of Synthetic Chemistry and Natural …, 2018)
